{"source": "the NIST ThermoML archive (doi:10.1016/j.jct.2012.02.038)", "key": {"[1]": {"test": "refractive index (other wavelength) (dimensionless)", "conditions": "101.3 kPa, Liquid, Wavelength=632.8 nm, Minimum deviation technique"}, "[2]": {"test": "refractive index (other wavelength) (dimensionless); xn = mol fraction of the nth substance listed", "conditions": "101.3 kPa, Liquid, Wavelength=632.8 nm, Minimum deviation technique"}}, "note": "Values joined by “and” are separate entries in the source; they are usually repeats but may differ in a detail not shown here. Equal values may be shown once. ± gives the expanded uncertainty stated by the source."}
{"smiles": "COC(=O)CCCCC(=O)OC", "note": "[dimethyl 1,6-hexanedioate]", "values": [{"measurement": "refractive index", "setting": "[1]; 293.15 K", "value": "1.4275 ± 0.0002"}, {"measurement": "refractive index", "setting": "[1]; 294.14 K", "value": "1.4271 ± 0.0002"}, {"measurement": "refractive index", "setting": "[1]; 295.19 K", "value": "1.4267 ± 0.0002"}, {"measurement": "refractive index", "setting": "[1]; 296.25 K", "value": "1.4263 ± 0.0002"}, {"measurement": "refractive index", "setting": "[1]; 298.35 K", "value": "1.4254 ± 0.0002"}, {"measurement": "refractive index", "setting": "[1]; 299.4 K", "value": "1.425 ± 0.0002 and 1.4249 ± 0.0002"}, {"measurement": "refractive index", "setting": "[1]; 300.18 K", "value": "1.4246 ± 0.0002"}, {"measurement": "refractive index", "setting": "[1]; 301 K", "value": "1.4243 ± 0.0002"}, {"measurement": "refractive index", "setting": "[1]; 301.84 K", "value": "1.4239 ± 0.0002"}, {"measurement": "refractive index", "setting": "[1]; 302.58 K", "value": "1.4236 ± 0.0002"}, {"measurement": "refractive index", "setting": "[1]; 303.19 K", "value": "1.4234 ± 0.0002"}, {"measurement": "refractive index", "setting": "[1]; 303.88 K", "value": "1.4231 ± 0.0002"}]}
{"smiles": "COC(=O)CCCCC(=O)OC", "note": "[dimethyl 1,6-hexanedioate] + CCCCCCCC", "values": [{"measurement": "refractive index", "setting": "[2]; 299.79 K, x1 = 0.099", "value": "1.3955 ± 0.0002"}, {"measurement": "refractive index", "setting": "[2]; 299.79 K, x1 = 0.2", "value": "1.3985 ± 0.0002"}, {"measurement": "refractive index", "setting": "[2]; 299.79 K, x1 = 0.302", "value": "1.4014 ± 0.0002"}, {"measurement": "refractive index", "setting": "[2]; 299.79 K, x1 = 0.4", "value": "1.4047 ± 0.0002"}, {"measurement": "refractive index", "setting": "[2]; 299.79 K, x1 = 0.5", "value": "1.408 ± 0.001"}, {"measurement": "refractive index", "setting": "[2]; 299.79 K, x1 = 0.602", "value": "1.4113 ± 0.0002"}, {"measurement": "refractive index", "setting": "[2]; 299.79 K, x1 = 0.701", "value": "1.4146 ± 0.0002"}, {"measurement": "refractive index", "setting": "[2]; 299.79 K, x1 = 0.8", "value": "1.418 ± 0.0002"}, {"measurement": "refractive index", "setting": "[2]; 299.79 K, x1 = 0.899", "value": "1.4214 ± 0.0002"}]}
{"smiles": "COC(=O)CCCCC(=O)OC", "note": "[dimethyl 1,6-hexanedioate] + CCCCCCCCC", "values": [{"measurement": "refractive index", "setting": "[2]; 305.07 K, x1 = 0.101", "value": "1.4 ± 0.0002"}, {"measurement": "refractive index", "setting": "[2]; 305.07 K, x1 = 0.2", "value": "1.4017 ± 0.0002"}, {"measurement": "refractive index", "setting": "[2]; 305.07 K, x1 = 0.295", "value": "1.404 ± 0.0002"}, {"measurement": "refractive index", "setting": "[2]; 305.07 K, x1 = 0.39", "value": "1.406 ± 0.0002"}, {"measurement": "refractive index", "setting": "[2]; 305.07 K, x1 = 0.492", "value": "1.4085 ± 0.0002"}, {"measurement": "refractive index", "setting": "[2]; 305.07 K, x1 = 0.594", "value": "1.411 ± 0.0002"}, {"measurement": "refractive index", "setting": "[2]; 305.07 K, x1 = 0.713", "value": "1.4143 ± 0.0002"}, {"measurement": "refractive index", "setting": "[2]; 305.07 K, x1 = 0.79", "value": "1.4163 ± 0.0002"}, {"measurement": "refractive index", "setting": "[2]; 305.07 K, x1 = 0.902", "value": "1.4197 ± 0.0002"}]}
{"smiles": "CCCCCCCCC", "note": "[nonane]", "values": [{"measurement": "refractive index", "setting": "[1]; 299.25 K", "value": "1.4015 ± 0.0002"}, {"measurement": "refractive index", "setting": "[1]; 300.07 K", "value": "1.4011 ± 0.0002"}, {"measurement": "refractive index", "setting": "[1]; 300.85 K", "value": "1.4007 ± 0.0002"}, {"measurement": "refractive index", "setting": "[1]; 301.85 K", "value": "1.4003 ± 0.0002"}, {"measurement": "refractive index", "setting": "[1]; 302.57 K", "value": "1.3999 ± 0.0002"}, {"measurement": "refractive index", "setting": "[1]; 303.3 K", "value": "1.3995 ± 0.0002"}, {"measurement": "refractive index", "setting": "[1]; 303.83 K", "value": "1.3993 ± 0.0002"}]}
{"smiles": "CCCCCCCC", "note": "[octane]", "values": [{"measurement": "refractive index", "setting": "[1]; 293.23 K", "value": "1.3964 ± 0.0002"}, {"measurement": "refractive index", "setting": "[1]; 294.23 K", "value": "1.3959 ± 0.0002"}, {"measurement": "refractive index", "setting": "[1]; 295.29 K", "value": "1.3954 ± 0.0002"}, {"measurement": "refractive index", "setting": "[1]; 296.27 K", "value": "1.3949 ± 0.0002"}, {"measurement": "refractive index", "setting": "[1]; 297.41 K", "value": "1.3944 ± 0.0002"}, {"measurement": "refractive index", "setting": "[1]; 298.48 K", "value": "1.3939 ± 0.0002"}, {"measurement": "refractive index", "setting": "[1]; 299.5 K", "value": "1.3934 ± 0.0002"}]}
